This is an account of results in US20030166202A1, “P450 Monooxygenases of the cyp79 family” (priority 2000, published 2003).

Structures are written as SMILES.

One data set deals with T1, CYP79D2 (Manihot esculenta, UniProt Q9M7B7).
T1 construct: made in house
The format is biochemical, cassava. The protocol:
Investigations into the substrate specificity of CYP79D1, CYP79D2, CYP79E1, CYP79E2, CYP79A2, CYP79B2, CYP79B5 and CYP79F1 are carried out in E. coli spheroplasts reconstituted with sorghum NADPH-cytochrome P450 oxidoreductase in the presence of high amounts of lipids. L-α-dioleyl phosphatidyl choline and L-α-dilauroyl phosphatidyl choline are preferred lipids for the reconstitution. […] Depending on the nature of the substrate, substrate specificity may also be determined using intact P. pastoris cells or intact E. coli cells.
The ability of a P450 monooxygenase to convert an aliphatic or aromatic amino acid or chain-elongated methionine homologue to the corresponding oxime can be tested in an assay (see also example 5) comprising
a) incubating a reaction mixture comprising the P450 monooxygenase of the present invention or spheroplasts of E.coli cells expressing said enzyme, the parent amino acid, NADPH, oxygen, NADPH-cytochrome P450 oxidoreductase and lipid at ambient temperature for a certain period of time which is between 2 min and 2 to 6 hours;
b) terminating the reaction for example by the addition of a denaturing compounds such as ethyl acetate; and
c) chemically identifying and quantifying the aldoxime produced.

In the next data set the target is T2, CYP79B2 (Arabidopsis thaliana, UniProt O81346).
T2 sequence (O81346 1-541): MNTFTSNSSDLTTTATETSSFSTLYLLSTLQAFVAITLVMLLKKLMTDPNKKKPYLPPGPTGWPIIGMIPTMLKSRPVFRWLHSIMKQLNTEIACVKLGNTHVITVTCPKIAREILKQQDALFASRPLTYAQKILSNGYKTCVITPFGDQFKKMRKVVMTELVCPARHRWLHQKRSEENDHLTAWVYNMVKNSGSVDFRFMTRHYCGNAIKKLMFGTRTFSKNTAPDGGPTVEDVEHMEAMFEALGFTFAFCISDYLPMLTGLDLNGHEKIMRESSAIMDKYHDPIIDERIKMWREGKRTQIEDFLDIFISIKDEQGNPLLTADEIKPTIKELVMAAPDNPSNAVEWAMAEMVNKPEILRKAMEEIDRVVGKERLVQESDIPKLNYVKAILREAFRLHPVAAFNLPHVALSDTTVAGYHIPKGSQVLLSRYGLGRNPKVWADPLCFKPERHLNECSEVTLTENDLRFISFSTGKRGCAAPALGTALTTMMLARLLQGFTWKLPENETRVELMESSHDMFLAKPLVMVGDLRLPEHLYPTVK
Put plainly: CYP79B2 activity in E. coli spheroplasts reconstituted with NADPH:cytochrome P450 reductase. As to conditions: radiolabelled amino acid, TLC.

In the next data set the target is CYP79F1 (Arabidopsis thaliana, UniProt Q949U1, M2A). As to conditions: E. coli C43(DE3) spheroplasts, GC-MS or TLC. The protocol: In a typical enzyme assay, 5 μl spheroplasts and 4 μl NADPH:cytochrome P450 reductase (equivalent to 0.04 units defined as 1 μmol cytochrome c/min) are incubated with substrate in buffer containing 30 mM KPi, pH 7.5, 3 mM NADPH, 3 mM reduced glutathione, 0.042% Tween 80, 1 mg ml^−1 L-α-dilauroylphosphatidylcholine in a total volume of 30 μl. Reaction mixtures containing spheroplasts of E. coli C43(DE3) transformed with empty vector are used as controls in all assays. 3.3 μM L-[U-^14C]phenylalanine (453 mCi/mmol; Pharmacia), 3.7 μM L-[U-^14C]tyrosine (449 mCi/mmol; Pharmacia), 0.1 mM L-[methyl-^14C]methionine (56 mCi/mmol; Pharmacia), and 24 μM L-[side chain-3-^14C]tryptophan (56.5 mCi/mmol; NEN) are tested as potential substrates. After incubation at 28° C. for 1 hour, half of the reaction mixture is analyzed by TLC on Silica Gel 60 F254 sheets (Merck) using toluene/ethyl acetate 5:1 (v/v) as eluent. Radiolabelled bands are visualized and quantified using a STORM 840 phosphoimager (Pharmacia). For GC-MS analysis, 450 μl reaction mixture containing 3.3 mM L-methionine (Sigma), 3.3 mM DL-dihomomethionine or 3.3 mM DL-trihomomethionine, respectively, are incubated for 4 hours at 25° C. and extracted with a total volume of 600 μl CHCl3. The organic phase is collected, evaporated, and the residue is dissolved in 15 μl CHCl3 and analyzed by GC-MS. […] An SGE column (BPX5, 25 m×0.25 mm, 0.25 μm film thickness) is used (heat pressure 100 kPa, splitless injection). The oven temperature program is as follows: 80° C. for 3 minutes, 80° C. to 180° C. at 5° C. min^−1, 180° C. to 300° C. at 20° C. min^−1, and 300° C. for 10 min. The ion source is run in EI mode (70 eV) at 200° C. […] DL-dihomomethionine, DL-trihomomethionine, 5-methylthiopentanaldoxime and 6-methylthiohexanaldoxime are synthesized as described (Dawson et al, J. Biol. Chem. 268: 27154-27159, 1993) and authenticated by NMR spectroscopy.

The next data set concerns the target T3, CYP79A2 (Arabidopsis thaliana, UniProt Q9FLC8).
T3 sequence (Q9FLC8 7-529 limits assumed): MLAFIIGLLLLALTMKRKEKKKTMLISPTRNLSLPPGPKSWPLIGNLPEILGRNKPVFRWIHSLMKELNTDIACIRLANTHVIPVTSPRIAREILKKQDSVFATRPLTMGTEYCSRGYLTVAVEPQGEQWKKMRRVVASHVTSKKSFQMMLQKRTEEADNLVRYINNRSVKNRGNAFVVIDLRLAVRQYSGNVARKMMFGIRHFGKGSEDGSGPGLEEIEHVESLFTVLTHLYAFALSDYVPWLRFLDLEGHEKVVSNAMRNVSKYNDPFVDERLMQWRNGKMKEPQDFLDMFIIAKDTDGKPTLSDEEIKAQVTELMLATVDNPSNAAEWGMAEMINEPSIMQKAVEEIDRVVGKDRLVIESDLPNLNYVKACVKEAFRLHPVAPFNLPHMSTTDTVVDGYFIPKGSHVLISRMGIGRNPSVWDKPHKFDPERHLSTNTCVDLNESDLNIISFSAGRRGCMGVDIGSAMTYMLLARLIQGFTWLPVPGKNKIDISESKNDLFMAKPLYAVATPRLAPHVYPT
Put plainly: CYP79A2 activity in E. coli spheroplasts reconstituted with NADPH:cytochrome P450 oxidoreductase. The settings on record: TLC or GC-MS detection.

T1 sequence (Q9M7B7 whole entry): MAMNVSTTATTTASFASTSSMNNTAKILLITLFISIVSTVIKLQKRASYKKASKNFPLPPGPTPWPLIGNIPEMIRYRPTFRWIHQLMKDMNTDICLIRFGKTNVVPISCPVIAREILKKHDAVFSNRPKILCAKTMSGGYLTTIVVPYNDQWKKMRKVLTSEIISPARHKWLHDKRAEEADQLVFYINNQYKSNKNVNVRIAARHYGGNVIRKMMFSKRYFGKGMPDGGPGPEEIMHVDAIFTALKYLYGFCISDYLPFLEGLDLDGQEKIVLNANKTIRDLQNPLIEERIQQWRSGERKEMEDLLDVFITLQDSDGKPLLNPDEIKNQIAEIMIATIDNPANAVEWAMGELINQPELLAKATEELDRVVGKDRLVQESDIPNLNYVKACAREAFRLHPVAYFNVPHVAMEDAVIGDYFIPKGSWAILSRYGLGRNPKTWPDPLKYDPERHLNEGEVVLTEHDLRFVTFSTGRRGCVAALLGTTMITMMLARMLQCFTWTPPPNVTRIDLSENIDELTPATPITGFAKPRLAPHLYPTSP
Sequence of CYP79F1 (Q949U1 whole entry M2A): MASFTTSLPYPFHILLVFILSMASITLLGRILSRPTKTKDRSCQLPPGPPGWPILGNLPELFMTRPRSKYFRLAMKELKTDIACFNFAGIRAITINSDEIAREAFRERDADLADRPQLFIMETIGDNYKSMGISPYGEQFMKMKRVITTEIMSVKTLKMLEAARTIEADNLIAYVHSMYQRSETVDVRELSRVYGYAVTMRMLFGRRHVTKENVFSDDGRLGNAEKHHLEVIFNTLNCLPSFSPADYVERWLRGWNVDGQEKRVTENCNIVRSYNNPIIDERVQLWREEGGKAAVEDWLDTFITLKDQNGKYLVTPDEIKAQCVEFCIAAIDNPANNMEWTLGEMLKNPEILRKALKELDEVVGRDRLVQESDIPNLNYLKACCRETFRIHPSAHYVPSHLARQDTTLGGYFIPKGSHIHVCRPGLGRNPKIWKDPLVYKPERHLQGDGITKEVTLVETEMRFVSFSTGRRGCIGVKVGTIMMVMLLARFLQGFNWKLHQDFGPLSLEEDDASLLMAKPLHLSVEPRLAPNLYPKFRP
Procedure for CYP79B2: The activity of CYP79B2 is measured by reconstituting spheroplasts from E. coli expressing CYP79B2 with purified NADPH:cytochrome P450 reductase from Sorghum bicolor (L.) Moench. […] The reaction is incubated at 34° C. for 30 minutes, extracted two times with ethyl acetate and the ethyl acetate phase is analyzed by TLC using toluen:ethyl acetate 5:1 as eluent. Radiolabelled bands are visualized on a Storm 840 phosphorimager (Molecular Dynamics) and quantified with ImageQuant analysis software (Molecular Dynamics). Substrate specificity is investigated by substituting the ^14C-labelled tryptophan with ^14C-labelled tyrosine or phenylalanine. GC-MS is employed to verify the structure of the compound produced from tryptophan by recombinant CYP79B2. A 450 μl reaction mixture as described above containing 2 mM unlabelled tryptophan is incubated at 34° C. for 2 hours. The reaction mixture is extracted twice with 300 μl CHCl3 and lyophilized until dryness. GC-MS is performed with an HP5890 Series II gas chromatograph coupled to a Jeol JMS-AX505W mass spectrometer. Splitless injection on an SGE column (BPX5, 25 mm×0.25 mm, 0.25 μm film thickness) and a head pressure of 100 kPa are used.
Single colonies are grown overnight at 37° C. in LB medium containing 100 μg/ml ampicillin. 1 ml of the overnight culture is used to inoculate 75 ml TB medium containing 100 μg/ml ampicillin, 75 μg/ml δ-aminolevulinic acid, 1 mM thiamine and 1 mM IPTG. The TB cultures are grown for 44 hours at 125 rpm and 28° C.

For `N[C@@H](Cc1ccc(O)cc1)C(=O)O` [L-tyrosine], the “conversion to the corresponding oxime by CYP79D2” value on CYP79D2 is reported as “Neither L-Leucine, L-phenylalanine nor L-tyrosine are metabolized”. The “oxime production by CYP79B2” value at CYP79B2 was “No oxime producing activity is detected”. For the same compound, the “formation of the corresponding aldoxime by CYP79F1” value at CYP79F1 is on record as “did not result in the formation of detectable amounts of the corresponding aldoximes”. Also, the “production of the respective aldoxime by CYP79A2” value at CYP79A2 is on record as “does not result in production of detectable amounts of the respective aldoximes”.
